Measured values published in patent publication US7700590B2, “Antibacterial agents” (University of New Orleans Research and Technology …, priority 2006, dated 2010).
In brackets after ≈: the same amount, converted by molar mass.

What was measured:
Assay type in all cases: cell-based
Bacillus subtilis PY79 = test: Antibacterial growth inhibition assay (serial dilution, colorimeter at 600 nm), B. subtilis PY79; design: key to MIC, concentration at 50% inhibition of bacteria growth, B. subtilis PY79: N stands for no inhibition; settings: for MIC / MIC90: Bacillus subtilis, PY79; for MIC / MIC, concentration at 50% inhibition of bacteria growth, B. subtilis PY79: 50% growth inhibition, serial dilution 238-0.46 μg/ml; for MIC: read-out: MIC, concentration at 50% inhibition of bacteria growth, B. subtilis PY79; for MIC90: concentration of inhibition at 90%, Table 2, read-out: MIC90 B. subtilis PY79
Description: (§1) The antibacterial activities of the compounds synthesized as described above were evaluated by assay against several strains of Gram positive bacteria from the American Type Culture Collection (ATCC), Staphylococcus aureus 29213, Staphylococcus aureus 43300, Enterococcus faecalis 29212, and Bacillus subtilis PY79. The minimum inhibition concentration (MIC, μg/mL) of each compound synthesized was tested against four bacterial strains. The inhibition of bacterial growth was monitored using a standard colorimeter at 600 nm using a serial dilution at concentrations 238, 119, 59.5, 29.8, 14.9, 7.44, 3.72, 1.86, 0.93, 0.46 μg/ml. Chloramphenicol was tested as a control, and inhibits bacteria growth (MIC90) at 7.44, 7.44, 4.0, 2.0 μg/mL, respectively, for the four bacterial strains listed in Table 1. In Table 1, the MICs are reported as the concentrations at 50% inhibition of bacteria growth, and N stands for no inhibition.

[1] = test system: Staphylococcus aureus 29213; test: Antibacterial growth inhibition assay (serial dilution, colorimeter at 600 nm), S. aureus 29213; design: key to MIC, concentration at 50% inhibition of bacteria growth, S. aureus 29213: N stands for no inhibition; settings: for MIC / MIC90: Staphylococcus aureus, 29213; for MIC / MIC, concentration at 50% inhibition of bacteria growth, S. aureus 29213: 50% growth inhibition, methicillin susceptible strain, serial dilution 238-0.46 μg/ml; for MIC: read-out: MIC, concentration at 50% inhibition of bacteria growth, S. aureus 29213; for MIC90: concentration of inhibition at 90%, Table 2, read-out: MIC90 S. aureus 29213
Description: as §1

[2] = test system: Enterococcus faecalis 29212; test: Antibacterial growth inhibition assay (serial dilution, colorimeter at 600 nm), E. faecalis 29212; design: key to MIC, concentration at 50% inhibition of bacteria growth, E. faecalis 29212: N stands for no inhibition; settings: for MIC, concentration at 50% inhibition of bacteria growth, E. faecalis 29212 / MIC: 50% growth inhibition, vancomycin susceptible strain, serial dilution 238-0.46 μg/ml; for MIC: Enterococcus faecalis, 29212, read-out: MIC, concentration at 50% inhibition of bacteria growth, E. faecalis 29212
Description: as §1

[3] = test system: Gram positive bacteria, including S. aureus, E. faecalis and B. subtilis; test: Antibacterial activity, statements not tied to one strain; settings: for antibacterial activity in words: strain not singled out
Description: as §1

[4] = test system: Staphylococcus aureus 43300; test: Antibacterial growth inhibition assay (serial dilution, colorimeter at 600 nm), S. aureus 43300; design: key to MIC, concentration at 50% inhibition of bacteria growth, S. aureus 43300: N stands for no inhibition; settings: for MIC: Staphylococcus aureus, 43300, read-out: MIC, concentration at 50% inhibition of bacteria growth, S. aureus 43300; for MIC / MIC, concentration at 50% inhibition of bacteria growth, S. aureus 43300: 50% growth inhibition, methicillin resistant strain, serial dilution 238-0.46 μg/ml
Description: as §1

SMILES	antibacterial activity in words (Bacillus subtilis PY79; B. subtilis PY79)	MIC (Bacillus subtilis PY79)	MIC90 (Bacillus subtilis PY79)	antibacterial activity in words ([1]; S. aureus 29213)	MIC [1]	MIC90 [1]	MIC, concentration at 50% inhibition of bacteria growth, E. faecalis 29212 [2]	antibacterial activity in words ([2]; E. faecalis 29212)	MIC90 ([3]; strain not named in the sentence (Table 2: S. aureus 29213, B. subtilis PY79))	antibacterial activity in words [3]	antibacterial activity in words ([4]; S. aureus 43300)	MIC [4]	MIC [2]	MIC, concentration at 50% inhibition of bacteria growth, B. subtilis PY79 (Bacillus subtilis PY79)	MIC, concentration at 50% inhibition of bacteria growth, S. aureus 29213 [1]	MIC, concentration at 50% inhibition of bacteria growth, S. aureus 43300 [4]	concentration of complete (greater than 90%) inhibition ([1]; S. aureus 29213)	concentration inhibiting over 90% growth ([2]; E. faecalis 29212)	concentration of complete (greater than 90%) inhibition ([4]; S. aureus 43300, methicillin resistant)
CCN1CC[C@@H](CN(Cc2ccccc2)Cc2ccc(Cl)c(Cl)c2)OC1=O [Compound A11, 6-{[benzyl-(3,4-dichloro-benzyl)-amino]-methyl}-3-ethyl-[1,3]oxazinan-2-one]	excellent activity	5 µg/mL (≈ 12.3 µM)	7.44 µg/mL (≈ 18.3 µM)	excellent activity	5.6 µg/mL (≈ 13.7 µM)	9.85 µg/mL (≈ 24.2 µM)	N	no activity	< 10 µg/mL	most potent	excellent activity	6.56 µg/mL (≈ 16.1 µM)							
CCN1CC[C@@H](CN(Cc2ccccc2)Cc2cccc3ccccc23)OC1=O [Compound A13]		7.6 µg/mL (≈ 19.6 µM)	30 µg/mL (≈ 77.2 µM)		10 µg/mL (≈ 25.7 µM)	14.9 µg/mL (≈ 38.4 µM)				most potent		35 µg/mL (≈ 90.1 µM)	7.4 µg/mL (≈ 19 µM)						
CCN1CC[C@@H](CN(Cc2ccccc2)Cc2cccnc2)OC1=O [Compound A14]							238 µg/mL			decreased or nullified				N	N	N			
CCN1CC[C@@H](CN(Cc2ccccc2)Cc2ccccn2)OC1=O [Compound A15]							N			decreased or nullified				N	N	N			
CCN1CC[C@@H](CN(Cc2ccccc2)Cc2ccccc2C)OC1=O [Compound A17]		26 µg/mL (≈ 73.8 µM)	59.5 µg/mL (≈ 169 µM)		22 µg/mL (≈ 62.4 µM)	29.8 µg/mL (≈ 84.5 µM)				most potent		22.5 µg/mL (≈ 63.8 µM)	8.1 µg/mL (≈ 23 µM)				30 µg/mL	14.9 µg/mL	30 µg/mL
CN1CC[C@@H](CN(Cc2ccccc2)Cc2ccc3ccccc3c2)OC1=O [Compound B9]		12 µg/mL (≈ 32 µM)	30 µg/mL (≈ 80.1 µM)		11.5 µg/mL (≈ 30.7 µM)	14.9 µg/mL (≈ 39.8 µM)				most potent		13 µg/mL (≈ 34.7 µM)	14.9 µg/mL (≈ 39.8 µM)						
